Where two headings read alike, the source gives them in different places.
Biological target: T1, PgQC (Porphyromonas gingivalis, UniProt Q7MT37)
T1 construct: Ki; RA (average residual QC activity of PgQC); other: c = 1 μM; other: c = 1.5 μM; other: c = 10 μM; other: c = 100 μM; other: c = 12 μM; RA; fused on or other part: N-terminal His tag from pET28a(+), cleaved off by thrombin before the enzymatic characterisation
Test: biochemical
Design: species or system P. gingivalis
Settings: for Ki: inhibition of PgQC, H-Gln-AMC, 50 mM Tris-HCl, 50 mM NaCl pH 8.0, 30° C.
Description: The assay consists of varying concentration of the fluorogenic substrate and 0.5 U pyroglutaminyl aminopeptidase in 50 mM Tris-HCl, 50 mM NaCl at pH 8.0. After 10 minute incubation time at 30° C. reaction was initiated by addition of bacQC to a final volume of 125 μl reaction mixture. […] All determinations were carried out in 96 well microtiter plates (Fisher Scientific) at 30° C. using the FluoStar Optima (BMG Labtech).
For inhibitor testing, the sample composition was the same as described above, except for the addition of the putative inhibitory compound. […] (∘) represents reaction without inhibitor. Determinations were carried out in 50 mM Tris-HCl, 50 mM NaCl pH 8.0 and 1% (v/v) DMSO at 30° C.
RA refers to the average residual QC activity of PgQC measured in the presence of a concentration c of the respective compound. Ki refers to the average Ki values measured as described above, and Std(Ki) refers to the standard deviation of Ki.

[1] = read-out: RA (average residual QC activity of PgQC)

COc1cc(OC)cc(C(=O)N2CCc3[nH]cnc3C2)c1 [MWT-S-00429, (3,5-Dimethoxyphenyl)(1,4,6,7-tetrahydro-5H-imidazo[4,5-c]pyridin-5-yl)methanone]
Ki (read-out: Ki (average)): 928 nM | remaining activity at 10 µM [1]: 16%

O=C(c1ccc2ccccc2c1)N1CCc2[nH]cnc2C1 [MWT-S-00440, Naphthalen-2-yl(1,4,6,7-tetrahydro-5H-imidazo[4,5-c]pyridin-5-yl)methanone]
Ki (read-out: Ki (average)): 126 nM | remaining activity at 10 µM [1]: 4%

CC1c2nc[nH]c2CCN1Cc1cc(F)c(F)c(F)c1 (centres unmarked) [MWT-S-00267, 4-Methyl-5-[(3,4,5-trifluorophenyl)methyl]-3,4,6,7-tetrahydro-imidazo[4,5-c]pyridine]
Ki (Ki (average)): 528 nM | remaining activity at 4 µM [1]: 20%

O=C(c1cccc(F)c1)N1CCc2[nH]cnc2C1 [MWT-S-00430, (3-Fluorophenyl)(1,4,6,7-tetrahydro-5H-imidazo[4,5-c]pyridin-5-yl)methanone]
remaining activity at 1 µM [1]: 40%

COc1cccc(CN2CCc3[nH]cnc3C2)c1 [MWT-S-00343, 5-[(3-Methoxyphenyl)methyl]-1,4,6,7-tetrahydroimidazo[4,5-c]pyridine]
remaining activity at 1 µM [1]: 65%

O=C(c1ccc(-c2ccccc2)cc1)N1CCc2[nH]cnc2C1 [MWT-S-00428, [1,1′-Biphenyl]-4-yl(1,4,6,7-tetrahydro-5H-imidazo[4,5-c]pyridin-5-yl)methanone]
Ki (read-out: Ki (average)): 1900 nM | remaining activity at 1 µM [1]: 83%

O=C(c1ccc2c(c1)OCCO2)N1CCc2[nH]cnc2C1 [MWT-S-00434, (2,3-Dihydrobenzo[b][1,4]dioxin-6-yl)(1,4,6,7-tetrahydro-5H-imidazo-[4,5-c]pyridin-5-yl)methanone]
Ki (read-out: Ki (average)): 1340 nM | remaining activity at 100 µM [1]: 3%

FC1(F)Oc2ccc(CN3CCc4[nH]cnc4C3)cc2O1 [MWT-S-00344, 5-[(2,2-Difluoro-1,3-benzodioxol-5-yl)methyl]-1,4,6,7-tetrahydro-imidazo[4,5-c]pyridine]
remaining activity at 1 µM [1]: 56%

O=C(c1ccccc1)N1CCc2[nH]cnc2C1 [MWT-S-00149, Phenyl(3,4,6,7-tetrahydroimidazo[4,5-c]pyridin-5-yl)methanone]
Ki (read-out: Ki (average)): 435 nM | remaining activity at 4 µM [1]: 20%

O=C(c1cccc(Cl)c1)N1CCc2[nH]cnc2C1 [MWT-S-00425, (3-Chlorophenyl)(1,4,6,7-tetrahydro-5H-imidazo[4,5-c]pyridin-5-yl)methanone]
Ki (read-out: Ki (average)): 174 nM | remaining activity at 10 µM [1]: 5%

c1cc(CN2CCc3[nH]cnc3C2)cc(N2CCCC2)c1 [MWT-S-00361, 5-[(3-Pyrrolidin-1-ylphenyl)methyl]-1,4,6,7-tetrahydroimidazo[4,5-c]pyridine]
remaining activity at 1 µM [1]: 80%

O=C(c1ccc(Cl)cc1)N1CCc2[nH]cnc2C1 [MWT-S-00160, (4-Chlorophenyl)-(3,4,6,7-tetrahydroimidazo[4,5-c]pyridin-5-yl)methanone]
Ki (read-out: Ki (average)): 681 nM | remaining activity at 5 µM [1]: 20%

Fc1cc(CN2CCc3[nH]cnc3C2c2ccccc2)cc(F)c1F (centres unmarked) [MWT-S-00261, 4-Phenyl-5-[(3,4,5-trifluorophenyl)methyl]-3,4,6,7-tetrahydroimidazo[4,5-c]pyridine]
remaining activity at 20 µM [1]: 93%

c1ccc(CCN2CCc3[nH]cnc3C2)cc1 [MWT-S-00145, 5-(2-Phenylethyl)-3,4,6,7-tetrahydroimidazo[4,5-c]pyridine]
Ki (read-out: Ki (average)): 6470 nM | remaining activity at 40 µM [1]: 21%

CCCCOc1ccc(CN2CCc3[nH]cnc3C2)cc1 [MWT-S-00331, 5-[(4-Butoxyphenyl)methyl]-1,4,6,7-tetrahydroimidazo[4,5-c]pyridine]
Ki (Ki (average)): 254 nM | remaining activity at 1.5 µM [1]: 26%

Cc1ccc(CN2CCc3[nH]cnc3C2)cc1 [MWT-S-00420, 5-(p-Tolylmethyl)-1,4,6,7-tetrahydroimidazo[4,5-c]pyridine]
Ki (Ki (average)): 806 nM | remaining activity at 10 µM [1]: 16%

O=C(c1ccc2c(c1)OCO2)N1CCc2[nH]cnc2C1 [MWT-S-00427, Benzo[d][1,3]dioxol-5-yl(1,4,6,7-tetrahydro-5H-imidazo[4,5-c]pyridin-5-yl)methanone]
Ki (read-out: Ki (average)): 560 nM | remaining activity at 10 µM [1]: 13%

O=C(CCc1ccccc1)N1CCc2[nH]cnc2C1 [MWT-S-00147, 3-Phenyl-1-(3,4,6,7-tetrahydroimidazo[4,5-c]pyridin-5-yl)propan-1-one]
Ki (read-out: Ki (average)): 1750 nM | remaining activity at 12 µM [1]: 22%

Clc1ccc(CN2CCc3[nH]cnc3C2)cc1 [MWT-S-00421, 5-[(4-Chlorophenyl)methyl]-1,4,6,7-tetrahydroimidazo[4,5-c]pyridine]
Ki (Ki (average)): 540 nM | remaining activity at 10 µM [1]: 11%

COc1cccc(C(=O)N2CCc3[nH]cnc3C2)c1 [MWT-S-00158, (3-Methoxyphenyl)-(3,4,6,7-tetrahydroimidazo[4,5-c]pyridin-5-yl)methanone]
Ki (read-out: Ki (average)): 335 nM | remaining activity at 2 µM [1]: 21%

O=C(Cc1ccccc1)N1CCc2[nH]cnc2C1 [MWT-S-00148, 2-Phenyl-1-(3,4,6,7-tetrahydroimidazo[4,5-c]pyridin-5-yl)ethanone]
Ki (read-out: Ki (average)): 1680 nM | remaining activity at 8 µM [1]: 29%

O=C(c1cccc(-c2ccccc2)c1)N1CCc2[nH]cnc2C1 [MWT-S-00433, [1,1′-Biphenyl]-3-yl(1,4,6,7-tetrahydro-5H-imidazo[4,5-c]pyridin-5-yl)methanone]
Ki (read-out: Ki (average)): 547 nM | remaining activity at 1 µM [1]: 47%

O=C(c1ccc(F)cc1)N1CCc2[nH]cnc2C1 [MWT-S-00156, (4-Fluorophenyl)-(3,4,6,7-tetrahydroimidazo[4,5-c]pyridin-5-yl)methanone]
Ki (read-out: Ki (average)): 879 nM | remaining activity at 5 µM [1]: 24%

CCCOc1cccc(C(=O)N2CCc3[nH]cnc3C2)c1 [MWT-S-00432, (3-Propoxyphenyl)(1,4,6,7-tetrahydro-5H-imidazo[4,5-c]pyridin-5-yl)methanone]
Ki (read-out: Ki (average)): 780 nM | remaining activity at 100 µM [1]: 2%

O=C(c1cc(F)c(F)c(F)c1)N1CCc2[nH]cnc2C1 [MWT-S-00435, (1,4,6,7-Tetrahydro-5H-imidazo[4,5-c]pyridin-5-yl)(3,4,5-trifluoro-phenyl)methanone]
Ki (read-out: Ki (average)): 904 nM | remaining activity at 10 µM [1]: 16%

c1ccc(COc2ccc(CN3CCc4[nH]cnc4C3)cc2)cc1 [MWT-S-00359, 5-[(4-Benzyloxyphenyl)methyl]-1,4,6,7-tetrahydroimidazo[4,5-c]pyridine]
Ki (Ki (average)): 192 nM | remaining activity at 1 µM [1]: 31%

c1nc2c([nH]1)CCN(Cc1ccc(OCCN3CCOCC3)cc1)C2 [MWT-S-00330, 4-[2-[4-(1,4,6,7-Tetrahydroimidazo[4,5-c]pyridin-5-ylmethyl)phenoxy]ethyl]morpholine]
Ki (Ki (average)): 940 nM | remaining activity at 8 µM [1]: 22%

COC(=O)/C=C/CN1CCc2[nH]cnc2C1 [MWT-S-00138, Methyl (E)-4-(3,4,6,7-tetrahydroimidazo[4,5-c]pyridin-5-yl)but-2-enoate]
Ki (Ki (average)): 3000 nM | remaining activity at 20 µM [1]: 21%

c1ccc(C2NCCc3[nH]cnc32)cc1 (centres unmarked) [MWT-S-00264]
remaining activity at 100 µM [1]: 92%

c1ccc(CN2CCc3[nH]cnc3C23COC3)cc1 [MWT-S-00260, 5-Benzylspiro[6,7-dihydro-3H-imidazo[4,5-c]pyridine-4,3′-oxetane]]
Ki (read-out: Ki (average)): 1760 nM | remaining activity at 10 µM [1]: 22%

COc1ccc(C(=O)N2CCc3[nH]cnc3C2)cc1OC [MWT-S-00426, (3,4-Dimethoxyphenyl)(1,4,6,7-tetrahydro-5H-imidazo[4,5-c]pyridin-5-yl)methanone]
Ki (read-out: Ki (average)): 1460 nM | remaining activity at 10 µM [1]: 26%

COc1ccc(C(=O)N2CCc3[nH]cnc3C2)cc1 [MWT-S-00157, (4-Methoxyphenyl)-(3,4,6,7-tetrahydroimidazo[4,5-c]pyridin-5-yl)methanone]
Ki (read-out: Ki (average)): 833 nM | remaining activity at 5 µM [1]: 24%

CC1c2nc[nH]c2CCN1C(=O)c1ccccc1 (centres unmarked) [MWT-S-00327]
remaining activity at 100 µM [1]: 18%

Clc1ccc(CN2CCc3[nH]cnc3C2)cc1Cl [MWT-S-00423, 5-[(3,4-Dichlorophenyl)methyl]-1,4,6,7-tetrahydroimidazo[4,5-c]pyridine]
Ki (Ki (average)): 367 nM | remaining activity at 10 µM [1]: 8%

COc1cc(C(=O)N2CCc3[nH]cnc3C2)ccc1F [MWT-S-00436, (4-Fluoro-3-methoxyphenyl)(1,4,6,7-tetrahydro-5H-imidazo[4,5-c]pyridin-5-yl)methanone]
Ki (read-out: Ki (average)): 1240 nM | remaining activity at 100 µM [1]: 3%

Fc1cc(CN2CCc3[nH]cnc3C23COC3)cc(F)c1F [MWT-S-00266, 5-[(3,4,5-Trifluorophenyl)methyl]spiro[6,7-dihydro-3H-imidazo[4,5-c]pyridine-4,3′-oxetane]]
Ki (Ki (average)): 556 nM | remaining activity at 4 µM [1]: 19%

CC1c2nc[nH]c2CCN1Cc1ccccc1 (centres unmarked) [MWT-S-00265, 5-Benzyl-4-methyl-3,4,6,7-tetrahydroimidazo[4,5-c]pyridine]
Ki (read-out: Ki (average)): 3080 nM | remaining activity at 20 µM [1]: 21%

O=C(c1ccc(Cl)c(Cl)c1)N1CCc2[nH]cnc2C1 [MWT-S-00159, (3,4-Dichlorophenyl)-(3,4,6,7-tetrahydroimidazo[4,5-c]pyridin-5-yl)methanone]
Ki (read-out: Ki (average)): 257 nM | remaining activity at 2 µM [1]: 18%

c1ccc(CN2CCc3[nH]cnc3C2)cc1 [MWT-S-00139, 5-Benzyl-3,4,6,7-tetrahydroimidazo[4,5-c]pyridine]
Ki (read-out: Ki (average)): 909 nM | remaining activity at 8 µM [1]: 18%
